# Columns and labels:
# [1] = system: Mycobacterium tuberculosis; test: Antimycobacterial activity against Mycobacterium tuberculosis H37Rv in 7H9/ADC/Tween medium measured at day 14 by Alamar Blue assay; type: functional; details: 336 h
# [2] = Kinetic solubility of the compound at pH 7.4 after 2 hrs by shake flask method-based HPLC-DAD analysis; type: physicochemical; details: buffer, read-out: Kinetic_solubility
# [3] = Metabolic stability in mouse liver microsomes assessed as compound remaining at 0.1 uM measured at 30 mins by LC-MS/MS analysis; type: ADME; details: read-out: Stability
# [4] = Metabolic stability in rat liver microsomes assessed as compound remaining at 0.1 uM measured at 30 mins by LC-MS/MS analysis; type: ADME; details: read-out: Stability
# [5] = Metabolic stability in human liver microsomes assessed as compound remaining at 0.1 uM measured at 30 mins by LC-MS/MS analysis; type: ADME; details: read-out: Stability
# [6] = system: Mycobacterium tuberculosis; test: Antimycobacterial activity against Mycobacterium tuberculosis H37Rv in GAST-Fe medium measured at day 14 by Alamar Blue assay; type: functional; details: 336 h
# [7] = system: Mycobacterium tuberculosis; test: Antimycobacterial activity against Mycobacterium tuberculosis H37Rv in GAST medium with low Fe level measured at day 14 by Alamar Blue assay; type: functional; details: 336 h
# CHO = test: Cytotoxicity against CHO cells assessed as cell viability by MTT assay; type: cell-based; details: Cricetulus griseus
smiles,measurement,setting,value
Cc1cc(NCc2ccccn2)n2ncc(-c3ccc(C(=O)NCCN(C)C)cc3)c2n1,MIC99,[1],> 160 µM
same,solubility kinetic at 2 h,[2],189 µM
Cc1cc(NCCc2ccccn2)n2nc(C)c(-c3ccccc3)c2n1,MIC99,[1],> 160 µM
same,solubility kinetic at 2 h,[2],< 5 µM
COc1ccc(-c2cnn3c(NCc4ccccn4)cc(C)nc23)cc1,MIC99,[1],20 µM
same,solubility kinetic at 2 h,[2],< 5 µM
Cc1cc(NCc2ccccn2)n2ncc(-c3ccc(C(F)(F)F)cc3)c2n1,MIC99,[1],> 160 µM
same,solubility kinetic at 2 h,[2],< 5 µM
Cc1cc(NCc2ccccn2)n2ncc(-c3ccco3)c2n1,MIC99,[1],40 µM
same,solubility kinetic at 2 h,[2],48.8 µM
Cc1cc(Nc2ccccn2)n2nc(C)c(-c3ccccc3)c2n1,MIC99,[1],> 160 µM
same,solubility kinetic at 2 h,[2],< 5 µM
Cc1cc(NCc2ncnn2C)n2nc(C)c(-c3ccccc3)c2n1,"remaining at 0.5 h, 0.1 µM",[3],18.9%
same,MIC99,[1],> 160 µM
same,solubility kinetic at 2 h,[2],185 µM
same,"remaining at 0.5 h, 0.1 µM",[4],68.8%
same,"remaining at 0.5 h, 0.1 µM",[5],99.5%
Cc1cc(NCc2ccccn2)n2ncc(-c3cncnc3)c2n1,MIC99,[1],160 µM
same,solubility kinetic at 2 h,[2],111 µM
Cc1cc(NCc2ccccn2)n2nc(C)c(-c3ccc(F)cc3)c2n1,MIC99,[1],5 µM
same,solubility kinetic at 2 h,[2],< 5 µM
Cc1cc(NCCCc2ccccn2)n2nc(C)c(-c3ccccc3)c2n1,MIC99,[1],80 µM
same,solubility kinetic at 2 h,[2],5.9 µM
Cc1cc(NCc2ccccn2)n2nc(C)cc2n1,MIC99,[1],5 µM
same,solubility kinetic at 2 h,[2],> 200 µM
Cc1cc(NCc2ccccn2)n2ncc(-c3cccc(N(C)C)c3)c2n1,"remaining at 0.5 h, 0.1 µM",[3],7.9%
same,MIC99,[1],80 µM
same,solubility kinetic at 2 h,[2],94.6 µM
same,"remaining at 0.5 h, 0.1 µM",[4],4.5%
same,"remaining at 0.5 h, 0.1 µM",[5],33.7%
Cc1cc(NCc2ccccn2)n2ncc(-c3ccc(F)cc3F)c2n1,MIC99,[1],> 160 µM
same,solubility kinetic at 2 h,[2],< 5 µM
Cc1cc(NCC2CCCCN2)n2nc(C)c(-c3ccccc3)c2n1 (stereo not drawn),"remaining at 0.5 h, 0.1 µM",[3],14%
same,MIC99,[1],> 160 µM
same,solubility kinetic at 2 h,[2],189 µM
same,"remaining at 0.5 h, 0.1 µM",[4],5.1%
same,"remaining at 0.5 h, 0.1 µM",[5],51.8%
COc1ccc(-c2c(C)nn3c(NCc4ccccn4)cc(C)nc23)cc1,MIC99,[1],20 µM
same,solubility kinetic at 2 h,[2],< 5 µM
CCN1CCCC1CNc1cc(C)nc2c(-c3ccccc3)c(C)nn12 (stereo not drawn),MIC99,[1],> 160 µM
same,solubility kinetic at 2 h,[2],172 µM
same,"remaining at 0.5 h, 0.1 µM",[5],54%
Cc1cc(NCc2ccco2)n2nc(C)c(-c3ccccc3)c2n1,MIC99,[1],> 160 µM
same,solubility kinetic at 2 h,[2],< 5 µM
Cc1cc(NCc2ccccn2)n2ncc(C3=CCC(F)(F)CC3)c2n1,MIC99,[1],5 µM
same,solubility kinetic at 2 h,[2],5 µM
Cc1cc(NCc2ccccn2)n2ncc(-c3cccc(F)c3)c2n1,MIC99,[1],2.5 µM
same,solubility kinetic at 2 h,[2],5 µM
Cc1cc(NCc2nccn2C)n2nc(C)cc2n1,"remaining at 0.5 h, 0.1 µM",[3],85.1%
same,MIC99,[1],> 160 µM
same,solubility kinetic at 2 h,[2],182 µM
same,"remaining at 0.5 h, 0.1 µM",[4],80.6%
same,"remaining at 0.5 h, 0.1 µM",[5],100%
Cc1cc(NCc2ccccn2)n2ncc(-c3cc(F)c(F)c(F)c3)c2n1,MIC99,[1],2.5 µM
same,solubility kinetic at 2 h,[2],< 5 µM
Cc1cc(NCc2nccn2C)n2nc(C)c(-c3ccccc3)c2n1,MIC99,[1],5 µM
same,solubility kinetic at 2 h,[2],26.9 µM
same,MIC99,[6],37 µM
same,MIC99,[7],20 µM
same,IC50,CHO,< 9 µM
Cc1cc(NCc2ccccn2)n2ncc(-c3ccsc3)c2n1,MIC99,[1],20 µM
same,solubility kinetic at 2 h,[2],9 µM
Cc1cc(NCc2ccccn2)n2ncc(-c3ccc(C#N)cc3)c2n1,MIC99,[1],> 160 µM
same,solubility kinetic at 2 h,[2],< 5 µM
CO[C@H]1/C=C/O[C@@]2(C)Oc3c(C)c(O)c4c(O)c(c(/C=N/N5CCN(C)CC5)c(O)c4c3C2=O)NC(=O)/C(C)=C\C=C\[C@H](C)[C@H](O)[C@@H](C)[C@@H](O)[C@@H](C)[C@H](OC(C)=O)[C@@H]1C [RIFAMPIN],MIC99,[1],0.012 µM
Cc1cc(NCc2ccccn2)n2ncc(-c3ccc(Cl)cc3)c2n1,MIC99,[1],10 µM
same,solubility kinetic at 2 h,[2],< 5 µM
Cc1cccc(CNc2cc(C)nc3c(-c4ccccc4)c(C)nn23)n1,MIC99,[1],> 160 µM
same,solubility kinetic at 2 h,[2],< 5 µM
Cc1cc(NCc2ccccn2)n2ncc(-c3ccn(C)n3)c2n1,MIC99,[1],> 160 µM
same,solubility kinetic at 2 h,[2],188 µM
Cc1cc(NCc2ccccn2)n2nc(C)c(Nc3ccccc3)c2n1,MIC99,[1],40 µM
same,solubility kinetic at 2 h,[2],7.8 µM
Cc1cc(NCc2ccccn2)n2ncc(-c3ccncc3)c2n1,MIC99,[1],> 160 µM
same,solubility kinetic at 2 h,[2],161 µM
Cc1cc(OCc2ccccn2)n2nc(C)c(-c3ccccc3)c2n1,MIC99,[1],> 160 µM
same,solubility kinetic at 2 h,[2],25.6 µM
Cc1cc(NCc2ccccn2)n2nc(C)c(-c3cccnc3F)c2n1,"remaining at 0.5 h, 0.1 µM",[3],100%
same,MIC99,[1],10 µM
same,solubility kinetic at 2 h,[2],< 5 µM
same,"remaining at 0.5 h, 0.1 µM",[4],96.5%
same,"remaining at 0.5 h, 0.1 µM",[5],100%
Cc1cc(NCc2nccs2)n2nc(C)c(-c3ccccc3)c2n1,MIC99,[1],> 160 µM
same,solubility kinetic at 2 h,[2],108 µM
Cc1cc(NCc2ccccn2)n2ncc(-c3ccc(F)cc3)c2n1,MIC99,[1],5 µM
same,solubility kinetic at 2 h,[2],< 5 µM
Cc1cc(NCc2ccccn2)n2ncc(-c3c(C)cccc3C)c2n1,MIC99,[1],> 160 µM
same,solubility kinetic at 2 h,[2],< 5 µM
Cc1cc(NCc2cnccn2)n2nc(C)c(-c3ccccc3)c2n1,MIC99,[1],80 µM
same,solubility kinetic at 2 h,[2],7.1 µM
Cc1cc(NCc2ccccn2)n2ncc(-c3ccc(N(C)C)cc3)c2n1,MIC99,[1],20 µM
same,solubility kinetic at 2 h,[2],< 5 µM
Cc1cc(NCc2ccncc2)n2nc(C)c(-c3ccccc3)c2n1,MIC99,[1],> 160 µM
same,solubility kinetic at 2 h,[2],134 µM
Cc1cc(NCc2cccs2)n2nc(C)c(-c3ccccc3)c2n1,MIC99,[1],> 160 µM
same,solubility kinetic at 2 h,[2],< 5 µM
Cc1cc(N(C)Cc2ccccn2)n2nc(C)c(-c3ccccc3)c2n1,MIC99,[1],> 160 µM
same,solubility kinetic at 2 h,[2],17.5 µM
Cc1ccc(-c2cnn3c(NCc4ccccn4)cc(C)nc23)cc1,MIC99,[1],5 µM
same,solubility kinetic at 2 h,[2],< 5 µM
Cc1cc(NCc2ccccn2)n2ncc(-c3ccccc3)c2n1,MIC99,[1],10 µM
same,solubility kinetic at 2 h,[2],< 5 µM
Cc1cc(NCc2ccccn2)n2ncc(-c3ccc(O)cc3)c2n1,"remaining at 0.5 h, 0.1 µM",[3],41.4%
same,MIC99,[1],> 160 µM
same,solubility kinetic at 2 h,[2],10.9 µM
same,"remaining at 0.5 h, 0.1 µM",[4],60.1%
same,"remaining at 0.5 h, 0.1 µM",[5],99.3%
Cc1cc(NCc2cccc[n+]2[O-])n2ncc(-c3ccccc3)c2n1,"remaining at 0.5 h, 0.1 µM",[3],12.3%
same,MIC99,[1],> 160 µM
same,solubility kinetic at 2 h,[2],159 µM
same,"remaining at 0.5 h, 0.1 µM",[4],61.2%
same,"remaining at 0.5 h, 0.1 µM",[5],99.7%
Cc1cc(NCc2ccccn2)n2ncc(-c3ccc(F)cc3C)c2n1,MIC99,[1],> 160 µM
same,solubility kinetic at 2 h,[2],42.3 µM
NC[C@H]1O[C@H](O[C@H]2[C@H](O)[C@@H](O[C@H]3O[C@H](CO)[C@@H](O)[C@H](N)[C@H]3O)[C@H](N)C[C@@H]2N)[C@H](O)[C@@H](O)[C@@H]1O [KANAMYCIN],MIC99,[1],6.45 µM
Cc1cc(NCc2ccccn2)n2ncc(-c3ccc(C(=O)Nc4ccccc4)cc3)c2n1,MIC99,[1],> 160 µM
same,solubility kinetic at 2 h,[2],5 µM
Cc1cc(NCc2ncc[nH]2)n2nc(C)c(-c3ccccc3)c2n1,MIC99,[1],37 µM
same,solubility kinetic at 2 h,[2],< 5 µM
Cc1cc(NCc2ccc3ccccc3n2)n2nc(C)c(-c3ccccc3)c2n1,MIC99,[1],> 160 µM
same,solubility kinetic at 2 h,[2],< 5 µM
Cc1cc(NCc2c[nH]cn2)n2nc(C)c(-c3ccccc3)c2n1,MIC99,[1],> 160 µM
same,solubility kinetic at 2 h,[2],14.6 µM
Cc1cc(NCc2ncccn2)n2nc(C)c(-c3ccccc3)c2n1,MIC99,[1],80 µM
same,solubility kinetic at 2 h,[2],37.9 µM
Cc1cc(NCc2ccccn2)n2ncc(C3=CCOCC3)c2n1,MIC99,[1],80 µM
same,solubility kinetic at 2 h,[2],171 µM
Cc1cc(NCc2ccccn2)n2ncc(Br)c2n1,MIC99,[1],> 160 µM
same,solubility kinetic at 2 h,[2],89.3 µM
Cc1cc(NCc2ccccn2)n2ncc(-c3ccccc3C)c2n1,MIC99,[1],1.25 µM
same,solubility kinetic at 2 h,[2],< 5 µM
Cc1cc(NCc2cccnc2)n2nc(C)c(-c3ccccc3)c2n1,MIC99,[1],> 160 µM
same,solubility kinetic at 2 h,[2],110 µM
Cc1cc(NCc2ccccn2)n2ncc(-c3cccc(N)c3)c2n1,"remaining at 0.5 h, 0.1 µM",[3],55.1%
same,MIC99,[1],> 160 µM
same,solubility kinetic at 2 h,[2],160 µM
same,"remaining at 0.5 h, 0.1 µM",[4],56.8%
same,"remaining at 0.5 h, 0.1 µM",[5],89.5%

# Source: ChEMBL document CHEMBL3627697, “Aminopyrazolo[1,5-a]pyrimidines as potential inhibitors of Mycobacterium tuberculosis: Structure activity relationships and ADME characterization” (Bioorg Med Chem, 2015)
